The record followed here is ChEMBL document CHEMBL1201862, “PubChem BioAssay data set” (2004).

The test system of assay [1] is Vero. As to the kind of experiment: host cell viability loss, Vero E6 – synthesized analogs, cytotoxicity control for West Nile virus antiviral project, SAR follow-up (AID 2244). As to conditions: Chlorocebus sabaeus. The format is functional.
Assay [2] concerns Streptococcus. As to the kind of experiment: Luminescence Microorganism-Based Dose Response Follow up to Identify Compounds Cytotoxic to Streptococcus. [Related pubchem assays: 1677 (Project Summary), 1915, 1914, 1902 (Retest at Dose), 1900 (Counter Screen), 1662 (Primary HTS)]. The format is functional, organism-based. Background: A counterscreen serves to expose hits that act by an unwanted route or on another target.

For assay [3], the target named is Cytochrome P450 3A4 (Homo sapiens, UniProt P08684). The conditions noted are these: read-out: Potency.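 Also: confirmatory qHTS run detecting inhibitors and substrates of CYP3A4.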
The target in assay [4] is T1, Mitochondrial peptide methionine sulfoxide reductase (Bos taurus, UniProt P54149).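 Also: absorbance read-out, biochemical high-throughput dose-response screen for MsrA inhibitors, confirmatory; recombinant bovine MsrA coupled to E. coli TrxB with NADPH and selenocystamine; potency is for inhibitors of MsrA activity on DMSO substrate.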
T1 sequence (P54149 whole entry): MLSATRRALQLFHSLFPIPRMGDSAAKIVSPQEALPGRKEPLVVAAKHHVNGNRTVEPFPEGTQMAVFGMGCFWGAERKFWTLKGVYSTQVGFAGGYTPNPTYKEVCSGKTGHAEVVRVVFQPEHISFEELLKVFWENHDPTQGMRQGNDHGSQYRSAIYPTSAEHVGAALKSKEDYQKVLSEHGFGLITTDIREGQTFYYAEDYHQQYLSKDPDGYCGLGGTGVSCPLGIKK
The format is functional.

Assay [5] addresses Dual specificity tyrosine-phosphorylation-regulated kinase 1A (Rattus norvegicus, UniProt Q63470). In kind it is biochemical, Homo sapiens.
Assay [6] deals with T2, Beta Lactamase (Pseudomonas aeruginosa, UniProt Q932Y6). As to the kind of experiment: BLA reporter interference, concentration series – BLA reporter cells, FRET fluorescence, artefact control for NOD2-RIPK2 interaction inhibitor project, dose response (AID 651552). In kind it is functional, cell-based.
Assay [7] concerns the target Sphingosine 1-phosphate receptor 1 (Homo sapiens, UniProt P21453). In kind it is functional.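 Also: Tango beta-arrestin reporter U2OS cells stimulated with S1P near its EC80; inhibitor potency meaning antagonism of receptor activation by the natural agonist.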
For assay [8], the target named is T2, Beta Lactamase. As to the kind of experiment: BLA reporter interference, concentration series – BLA reporter cells, FRET fluorescence, artefact control for TLR9-MyD88 binding inhibitor project, dose response (AID 588341).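 Also: cell based assay in CHO-K1 cells stably expressing beta-lactamase.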 In kind it is cell-based.
Assay [9] concerns the target T3, Exodeoxyribonuclease V (Escherichia coli (strain K12), UniProt P04993+P07648+P08394).
T3 sequence (P04993 whole entry): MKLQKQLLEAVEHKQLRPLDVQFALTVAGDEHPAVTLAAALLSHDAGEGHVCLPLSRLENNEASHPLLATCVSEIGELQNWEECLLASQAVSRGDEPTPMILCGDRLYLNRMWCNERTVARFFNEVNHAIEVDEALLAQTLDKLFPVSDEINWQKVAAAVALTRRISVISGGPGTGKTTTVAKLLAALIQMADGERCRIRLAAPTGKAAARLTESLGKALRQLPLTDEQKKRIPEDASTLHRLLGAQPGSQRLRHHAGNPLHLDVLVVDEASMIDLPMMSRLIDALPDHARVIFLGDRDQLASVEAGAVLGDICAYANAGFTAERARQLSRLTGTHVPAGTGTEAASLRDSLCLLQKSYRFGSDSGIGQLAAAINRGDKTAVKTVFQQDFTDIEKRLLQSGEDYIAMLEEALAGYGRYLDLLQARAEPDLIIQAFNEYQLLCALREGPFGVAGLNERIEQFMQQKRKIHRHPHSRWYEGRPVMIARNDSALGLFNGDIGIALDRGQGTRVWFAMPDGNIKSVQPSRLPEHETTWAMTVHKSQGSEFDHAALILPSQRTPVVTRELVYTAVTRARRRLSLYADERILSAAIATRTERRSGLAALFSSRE
T3 sequence (P07648 whole entry): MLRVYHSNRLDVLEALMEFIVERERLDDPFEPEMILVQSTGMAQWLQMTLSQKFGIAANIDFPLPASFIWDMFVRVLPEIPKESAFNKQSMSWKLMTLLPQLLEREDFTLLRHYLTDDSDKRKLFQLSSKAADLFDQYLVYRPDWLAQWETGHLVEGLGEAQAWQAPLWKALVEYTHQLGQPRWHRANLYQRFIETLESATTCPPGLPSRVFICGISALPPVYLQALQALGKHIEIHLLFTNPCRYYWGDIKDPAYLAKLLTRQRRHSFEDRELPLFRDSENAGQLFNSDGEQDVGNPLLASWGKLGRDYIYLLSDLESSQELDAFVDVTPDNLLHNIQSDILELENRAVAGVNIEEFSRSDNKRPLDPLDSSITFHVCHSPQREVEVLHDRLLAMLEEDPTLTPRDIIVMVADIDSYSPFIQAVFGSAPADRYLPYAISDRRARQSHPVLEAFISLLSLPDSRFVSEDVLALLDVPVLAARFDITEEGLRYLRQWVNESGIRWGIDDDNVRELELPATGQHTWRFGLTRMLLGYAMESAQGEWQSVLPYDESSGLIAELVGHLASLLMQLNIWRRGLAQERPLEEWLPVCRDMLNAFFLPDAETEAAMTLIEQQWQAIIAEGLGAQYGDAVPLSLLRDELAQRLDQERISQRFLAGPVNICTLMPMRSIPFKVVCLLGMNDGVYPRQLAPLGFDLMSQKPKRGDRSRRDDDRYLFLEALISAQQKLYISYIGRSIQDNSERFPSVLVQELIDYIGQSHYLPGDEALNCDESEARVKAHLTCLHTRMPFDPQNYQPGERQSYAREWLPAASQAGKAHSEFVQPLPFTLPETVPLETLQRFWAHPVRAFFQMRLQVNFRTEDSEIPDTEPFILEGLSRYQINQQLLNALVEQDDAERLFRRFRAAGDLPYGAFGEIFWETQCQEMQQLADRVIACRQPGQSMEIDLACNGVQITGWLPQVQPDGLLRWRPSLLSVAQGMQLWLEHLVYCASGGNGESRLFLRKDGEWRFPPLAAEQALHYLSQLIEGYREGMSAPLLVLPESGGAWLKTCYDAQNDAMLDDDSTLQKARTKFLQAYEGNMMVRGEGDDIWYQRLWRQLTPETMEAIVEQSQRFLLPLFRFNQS
T3 sequence (P08394 whole entry): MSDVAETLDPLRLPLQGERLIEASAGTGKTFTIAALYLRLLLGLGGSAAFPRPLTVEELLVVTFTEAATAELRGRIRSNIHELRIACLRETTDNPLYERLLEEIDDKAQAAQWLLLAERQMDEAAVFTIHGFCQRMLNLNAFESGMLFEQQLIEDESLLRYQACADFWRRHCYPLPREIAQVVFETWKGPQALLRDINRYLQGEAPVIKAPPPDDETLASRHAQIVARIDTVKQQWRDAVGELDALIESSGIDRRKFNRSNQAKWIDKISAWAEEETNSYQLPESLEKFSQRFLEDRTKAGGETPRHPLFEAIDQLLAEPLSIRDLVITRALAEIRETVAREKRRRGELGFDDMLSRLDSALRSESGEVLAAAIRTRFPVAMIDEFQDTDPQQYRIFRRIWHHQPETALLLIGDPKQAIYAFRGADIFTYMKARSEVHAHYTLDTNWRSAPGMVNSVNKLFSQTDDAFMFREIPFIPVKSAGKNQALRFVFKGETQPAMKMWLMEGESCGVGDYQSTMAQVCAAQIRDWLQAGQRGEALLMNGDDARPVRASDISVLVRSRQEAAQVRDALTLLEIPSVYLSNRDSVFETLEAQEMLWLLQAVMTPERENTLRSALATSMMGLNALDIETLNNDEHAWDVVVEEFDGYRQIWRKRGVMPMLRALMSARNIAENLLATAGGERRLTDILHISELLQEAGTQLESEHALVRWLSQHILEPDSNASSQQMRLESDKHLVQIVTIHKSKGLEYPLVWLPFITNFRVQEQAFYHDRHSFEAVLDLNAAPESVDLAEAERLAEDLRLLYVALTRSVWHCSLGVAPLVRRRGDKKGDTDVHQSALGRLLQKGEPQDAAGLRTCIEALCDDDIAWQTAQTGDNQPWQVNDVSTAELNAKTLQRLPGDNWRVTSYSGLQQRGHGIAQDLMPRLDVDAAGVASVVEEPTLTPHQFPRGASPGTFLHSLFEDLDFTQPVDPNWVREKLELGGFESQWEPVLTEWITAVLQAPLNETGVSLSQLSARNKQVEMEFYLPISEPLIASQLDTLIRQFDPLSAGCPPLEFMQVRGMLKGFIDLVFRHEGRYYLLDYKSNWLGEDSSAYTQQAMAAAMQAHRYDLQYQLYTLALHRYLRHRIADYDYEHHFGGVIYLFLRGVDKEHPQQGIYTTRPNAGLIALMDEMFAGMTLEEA
As to the kind of experiment: RecBCD inhibition via phage-restricted bacterial growth – absorbance, V66 E. coli, mutant T4 phage, counter-screen for AddAB inhibitor project, dose response (AID 492957). The format is functional, cell-based, Escherichia coli str. K-12 substr. MG1655.

Assay [10] has as its target T4, Sphingosine 1-phosphate receptor 4 (Homo sapiens, UniProt O95977).
T4 sequence (O95977 whole entry): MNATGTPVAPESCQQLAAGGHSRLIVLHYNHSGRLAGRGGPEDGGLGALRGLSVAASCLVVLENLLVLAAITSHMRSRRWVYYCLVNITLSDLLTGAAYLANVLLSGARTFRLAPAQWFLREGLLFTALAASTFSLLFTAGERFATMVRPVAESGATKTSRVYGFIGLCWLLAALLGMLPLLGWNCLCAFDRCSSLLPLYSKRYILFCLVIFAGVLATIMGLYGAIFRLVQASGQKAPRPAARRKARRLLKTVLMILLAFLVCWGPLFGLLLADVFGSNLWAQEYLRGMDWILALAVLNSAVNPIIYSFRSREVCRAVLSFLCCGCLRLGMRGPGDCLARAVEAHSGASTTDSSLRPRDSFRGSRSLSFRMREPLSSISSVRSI
As to the kind of experiment: Fluorescence dose response cell-based high throughput screening assay for antagonists of the Sphingosine 1-Phosphate Receptor 4 (S1P4). [Related pubchem assays: 1524 (Confirmation in triplicates.), 1510 (Primary screen.)]. The format is functional.

Assay [11] deals with Keap1/Nrf2 (Homo sapiens, UniProt Q14145). As to the kind of experiment: disruptors of Keap1 binding to Nrf2 peptide – biochemical, fluorescence polarization, cherry-picked samples, dose response (AID 588683).
The target in assay [12] is Cytochrome P450 2D6 (Homo sapiens, UniProt P10635). As to the kind of experiment: qHTS Assay for Inhibitors and Substrates of Cytochrome P450 2D6. [Related pubchem assays: 410 ]. The format is ADME. The conditions noted are these: read-out: Potency.

Calls of active or inactive are those of the source. Some results are limits rather than exact numbers.

T2 sequence (Q932Y6 whole entry): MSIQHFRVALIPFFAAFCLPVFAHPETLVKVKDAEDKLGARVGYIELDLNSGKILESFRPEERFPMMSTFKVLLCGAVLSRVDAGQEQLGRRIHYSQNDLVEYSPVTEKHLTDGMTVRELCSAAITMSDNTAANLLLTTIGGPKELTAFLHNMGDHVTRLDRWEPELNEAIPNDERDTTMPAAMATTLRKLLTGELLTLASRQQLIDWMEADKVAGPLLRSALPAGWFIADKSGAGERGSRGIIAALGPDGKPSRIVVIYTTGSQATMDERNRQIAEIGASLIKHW
Cytochrome P450 3A4, sequence (P08684 whole entry): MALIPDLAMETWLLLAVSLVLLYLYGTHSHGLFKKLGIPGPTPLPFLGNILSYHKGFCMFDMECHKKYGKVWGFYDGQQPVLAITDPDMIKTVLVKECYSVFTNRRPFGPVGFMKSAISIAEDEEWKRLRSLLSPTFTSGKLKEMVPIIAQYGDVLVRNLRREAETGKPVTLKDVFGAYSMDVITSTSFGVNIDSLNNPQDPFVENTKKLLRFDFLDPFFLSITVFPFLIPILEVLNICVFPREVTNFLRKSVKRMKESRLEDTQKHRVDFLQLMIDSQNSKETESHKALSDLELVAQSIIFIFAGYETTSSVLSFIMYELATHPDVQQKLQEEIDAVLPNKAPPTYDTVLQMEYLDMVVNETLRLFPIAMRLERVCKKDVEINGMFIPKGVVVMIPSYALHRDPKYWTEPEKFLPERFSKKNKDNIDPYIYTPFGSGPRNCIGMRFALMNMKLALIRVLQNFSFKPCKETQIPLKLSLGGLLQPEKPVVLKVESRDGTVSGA
Sphingosine 1-phosphate receptor 1, sequence (P21453 whole entry): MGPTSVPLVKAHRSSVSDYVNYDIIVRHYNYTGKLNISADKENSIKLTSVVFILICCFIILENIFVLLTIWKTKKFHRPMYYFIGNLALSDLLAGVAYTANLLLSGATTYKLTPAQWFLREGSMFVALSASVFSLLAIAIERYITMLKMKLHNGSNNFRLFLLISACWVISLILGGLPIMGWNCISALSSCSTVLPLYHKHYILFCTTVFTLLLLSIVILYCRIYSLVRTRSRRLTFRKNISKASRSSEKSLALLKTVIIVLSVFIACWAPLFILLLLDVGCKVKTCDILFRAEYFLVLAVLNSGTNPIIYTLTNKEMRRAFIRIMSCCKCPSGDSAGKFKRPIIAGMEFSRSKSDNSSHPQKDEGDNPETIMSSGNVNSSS
Keap1/Nrf2, sequence (Q16236 whole entry): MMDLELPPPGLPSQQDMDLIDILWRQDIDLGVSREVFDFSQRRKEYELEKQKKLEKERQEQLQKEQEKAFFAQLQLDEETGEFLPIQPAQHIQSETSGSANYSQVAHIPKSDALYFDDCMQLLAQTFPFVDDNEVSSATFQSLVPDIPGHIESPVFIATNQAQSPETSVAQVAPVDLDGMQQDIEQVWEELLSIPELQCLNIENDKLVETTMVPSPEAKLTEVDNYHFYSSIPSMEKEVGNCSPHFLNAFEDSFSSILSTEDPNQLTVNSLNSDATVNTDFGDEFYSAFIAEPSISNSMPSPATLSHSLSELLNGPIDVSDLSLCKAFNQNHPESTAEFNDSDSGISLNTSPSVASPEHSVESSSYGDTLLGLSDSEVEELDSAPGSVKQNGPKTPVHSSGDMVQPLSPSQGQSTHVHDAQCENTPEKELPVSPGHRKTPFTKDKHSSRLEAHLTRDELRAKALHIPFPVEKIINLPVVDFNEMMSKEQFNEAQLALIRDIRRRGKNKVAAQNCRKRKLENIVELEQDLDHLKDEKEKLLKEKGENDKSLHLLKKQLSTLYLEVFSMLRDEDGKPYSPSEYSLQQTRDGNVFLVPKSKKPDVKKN
Keap1/Nrf2, sequence (Q14145 whole entry): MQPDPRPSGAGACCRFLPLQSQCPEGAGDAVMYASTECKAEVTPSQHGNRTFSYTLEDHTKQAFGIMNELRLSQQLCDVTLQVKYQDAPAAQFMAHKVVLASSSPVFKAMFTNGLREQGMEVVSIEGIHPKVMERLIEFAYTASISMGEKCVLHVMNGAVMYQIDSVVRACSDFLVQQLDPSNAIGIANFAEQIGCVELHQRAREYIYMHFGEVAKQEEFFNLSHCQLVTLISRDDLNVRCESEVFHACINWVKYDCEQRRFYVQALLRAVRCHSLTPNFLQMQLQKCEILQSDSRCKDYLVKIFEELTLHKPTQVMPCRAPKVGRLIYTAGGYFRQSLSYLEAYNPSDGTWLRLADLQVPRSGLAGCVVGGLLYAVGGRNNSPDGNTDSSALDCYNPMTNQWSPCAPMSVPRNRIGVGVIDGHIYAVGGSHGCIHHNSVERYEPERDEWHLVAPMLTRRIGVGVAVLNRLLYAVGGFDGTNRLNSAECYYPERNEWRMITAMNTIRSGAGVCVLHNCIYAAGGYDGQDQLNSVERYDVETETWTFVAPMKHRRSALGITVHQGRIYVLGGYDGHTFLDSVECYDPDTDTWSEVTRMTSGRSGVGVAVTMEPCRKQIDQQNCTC
Cytochrome P450 2D6, sequence (P10635 whole entry): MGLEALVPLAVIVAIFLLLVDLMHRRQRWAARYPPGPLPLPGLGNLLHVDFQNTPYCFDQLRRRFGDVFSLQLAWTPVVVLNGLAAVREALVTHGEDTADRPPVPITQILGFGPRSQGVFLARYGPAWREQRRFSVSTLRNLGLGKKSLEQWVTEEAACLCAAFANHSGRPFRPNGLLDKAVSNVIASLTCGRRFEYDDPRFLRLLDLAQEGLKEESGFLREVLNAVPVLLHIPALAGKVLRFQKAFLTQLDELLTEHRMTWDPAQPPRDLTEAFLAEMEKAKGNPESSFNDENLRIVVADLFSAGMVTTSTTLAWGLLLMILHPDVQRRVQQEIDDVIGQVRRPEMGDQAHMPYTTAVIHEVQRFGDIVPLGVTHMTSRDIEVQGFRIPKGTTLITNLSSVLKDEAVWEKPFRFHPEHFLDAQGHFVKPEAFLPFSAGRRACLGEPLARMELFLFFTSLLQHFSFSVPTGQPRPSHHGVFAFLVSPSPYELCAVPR

On to `COc1ccc(-c2csc(NC(=O)c3ccccc3Cl)n2)cc1`, for which the CC50 in [1] is > 40 µM (active).
Consider `O=C(c1ccc(OC(F)(F)F)cc1)n1c2ccccc2c2ccccc21`, for which the EC50 in assay [2] is > 500 µM (not active).
On to `COc1cc2c(cc1O)CC1c3c(cc(O)c(OC)c3-2)CCN1C` (configuration not stated), for which the results for the AC50 in assay [3] and in assay [5] were 25.1 µM (inconclusive) and 3.83 µM (active), respectively. Also, the IC50 in assay [4] is 53.9 µM (inactive).
Turning to `C=CCn1c(Sc2ncc([N+](=O)[O-])s2)n[nH]c1=O`, the IC50 in assay [6] was 42 µM (inactive); in [7], 18.1 µM (not active); in [8], > 49.8 µM (inactive); in assay [9], 77.2 µM (inactive); in [10], 2.63 µM (active). The AC50 in [11] is > 52 µM (inactive).
Turning to `CC[C@@H]1[C@H]2CCCCN3[C@@H]2[C@@H](C[C@H]3[C@@H]2C[C@H](C)C(=O)O2)[C@@H]2[C@H]1OC(=O)[C@H]2C`, the AC50 in [12] was 10 µM (inconclusive).

One may read the CC50 as the concentration at which the toxic effect on the cells reaches its halfway point. In general, EC50 refers to the concentration that produces a half-maximal response. A higher EC50 goes with a need for much substance. Broadly, the IC50 is the concentration that gives 50% inhibition.
